According to US11382956B2, “Amylin analogues” (Zealand Pharma A/S, priority 2016, dated 2022):
pEC50: −log10 of the molar value. Numbered stars: 1 amine (or outer) side, 2 acyl side, 3 side chain; on linkers, the order of the positions; unused ones are H or OH. Bridge positions count the residues as written; N and C are the ends. Square brackets hold non-standard residues; d marks the D form. Peptide text beside a SMILES is read from it. * marks the point of attachment. C20 diacid = O=C(O)CCCCCCCCCCCCCCCCCCC(=O)*; γGlu = O=C(O)[C@H](CCC(=O)[*:2])N[*:1]; Hyp = O=C(O)[C@@H]1C[C@@H](O)CN1; NMeI = CC[C@H](C)[C@H](NC)C(=O)O; Aad = N[C@@H](CCCC(=O)O)C(=O)O; Sar = CNCC(=O)O

Columns and labels:
[1] = Effect on acute food intake and body weight in normal Sprague Dawley rats; format: in vivo, Sprague Dawley (SD) rats; settings: Dose: 30 nmol/kg sc, vehicle-corrected
[2] = Pharmacokinetic (PK) profiling in rats; settings: male, Sprague Dawley, plasma; rat, single sc bolus 30 nmol/kg; read-out: in vivo half life t1/2 (plasma terminal elimination half-life) (converted)
Experimental: Sprague Dawley male rats were given a single subcutaneous (sc) bolus of each peptide to be tested, as specified below.
30 nmol/kg doses of compound were administered. Blood samples were drawn from the tail vein prior to dosing and at 24 and 96 hours after dosing. The rats were euthanized immediately after the last blood sampling by concussion and cervical dislocation.
The dosing vehicle used for each test peptide was a mannitol-containing histidine buffer (pH 7.0). Plasma samples were analyzed after precipitation with ethanol by liquid chromatography mass spectrometry (LC-MS/MS). Mean plasma concentrations were used for calculation of the pharmacokinetic parameters.
Plasma terminal elimination half-life (t1/2) was determined as In(2)/λz, where λz is the magnitude of the slope of the log linear regression of the log concentration versus time profile during the terminal phase.

[3] = biological target: T1, recombinant human amylin 3 receptor (hAMYR3) (Homo sapiens, UniProt O60896+P30988); experiment: hAMYR3 cAMP assay (AlphaScreen) in 1321N1 cells; format: cell-based; settings: cAMP formation, 45 min stimulation
T1 construct: host or cells: human astrocytoma cell line 1321N1
T1 sequence (P30988 25-474): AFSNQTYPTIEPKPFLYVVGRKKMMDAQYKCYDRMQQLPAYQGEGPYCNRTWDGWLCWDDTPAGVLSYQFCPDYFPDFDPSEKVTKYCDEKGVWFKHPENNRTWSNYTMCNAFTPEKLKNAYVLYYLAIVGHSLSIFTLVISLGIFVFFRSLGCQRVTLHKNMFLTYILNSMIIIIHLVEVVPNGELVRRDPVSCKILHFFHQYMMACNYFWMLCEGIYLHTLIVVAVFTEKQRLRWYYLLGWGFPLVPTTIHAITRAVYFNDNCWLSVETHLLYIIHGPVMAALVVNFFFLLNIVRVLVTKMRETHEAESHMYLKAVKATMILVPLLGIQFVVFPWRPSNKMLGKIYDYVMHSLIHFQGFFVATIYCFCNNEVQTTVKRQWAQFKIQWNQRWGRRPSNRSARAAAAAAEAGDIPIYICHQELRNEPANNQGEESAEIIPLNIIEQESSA
T1 sequence (O60896 24-148 partner): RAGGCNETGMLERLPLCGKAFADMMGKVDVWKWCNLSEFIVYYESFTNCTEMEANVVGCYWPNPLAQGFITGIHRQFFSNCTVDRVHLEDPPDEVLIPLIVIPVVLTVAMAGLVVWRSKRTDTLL
How it was run: (§1)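 1321N1 astrocytoma cells expressing recombinant human calcitonin receptor alone or with RAMP3 (AMY3) stimulated 45 min at room temperature with peptide in IBMX-containing buffer. cAMP quantified by AlphaScreen after 1 h bead incubation; EC50 fitted from at least 7 concentrations.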

[4] = biological target: T2, recombinant human calcitonin receptor (hCT-R) (Homo sapiens, UniProt P30988); experiment: hCT-R cAMP assay (AlphaScreen) in 1321N1 cells; format: cell-based; settings: cAMP formation, 45 min stimulation
T2 construct: host or cells: human astrocytoma cell line 1321N1
T2 sequence (P30988 25-474): T1 sequence (P30988 25-474)
How it was run: as §1

[5] = Assessment of chemical stability in 40 mM buffers at 40° C. (RP-HPLC); format: physicochemical; settings: 1 mg/mL
How it was run: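 Peptides at 1 mg/mL in 40 mM acetate pH 4 or phosphate pH 6 and 7 were held at 40° C for 3 and 14 days. Main-peak area-% by C8 RP-HPLC, UV 220 nm; % degradation = change in main-peak area-% versus t=0.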

[6] = Assessment of physical stability: fibril formation by Thioflavin T fluorescence; format: physicochemical; parameters: key: FND = fibrillation not detected; FD = fibrillation detected; settings: 1 mg/mL peptide
How it was run: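 Test peptide at 1 mg/mL with 40 μM ThT in 50 mM phosphate pH 7.0, 50 mM histidine pH 7.0, or 50 mM acetate pH 4.0, in triplicate. Fluorescence read every 10 min after 300 s agitation for 96 hours at 40° C; significant intensity rise scored as fibrillation detected (FD).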

[7] = cited from earlier work
[8] = WO99/34764; cited from earlier work

With CC[C@H](C)[C@@H](C(=O)N[C@@H](CC(C)C)C(=O)N[C@@H](CO)C(=O)N[C@@H](CO)C(=O)N[C@H](C(=O)N[C@@H](CCC(=O)O)C(=O)N[C@H](C(=O)NCC(=O)N[C@@H](CO)C(=O)N[C@@H](CC(N)=O)C(=O)N[C@H](C(=O)N1C[C@H](O)C[C@H]1C(N)=O)[C@@H](C)O)C(C)C)[C@@H](C)O)N(C)C(=O)[C@H](C)NC(=O)CN(C)C(=O)[C@H](Cc1ccccc1)NC(=O)[C@@H](NC(=O)[C@@H](NC(=O)[C@H](CCCNC(=N)N)NC(=O)[C@H](CCC(N)=O)NC(=O)[C@H](CC(C)C)NC(=O)[C@H](Cc1ccccc1)NC(=O)[C@H](CCCC(=O)O)NC(=O)[C@H](C)NC(=O)[C@H](CC(C)C)NC(=O)[C@H](CCCNC(=N)N)NC(=O)[C@H](CCC(=O)O)NC(=O)[C@@H](NC(=O)[C@H](C)NC(=O)[C@@H]1CCCCNC(=O)C[C@H](NC(=O)[C@H](CCCNC(=N)N)NC(=O)CC[C@H](NC(=O)CCCCCCCCCCCCCCCCCCC(=O)O)C(=O)O)C(=O)NCC(=O)N[C@@H]([C@@H](C)O)C(=O)N[C@@H](C)C(=O)N[C@@H]([C@@H](C)O)C(=O)N1)[C@@H](C)O)[C@@H](C)O)[C@@H](C)O [Compound 38, [19CD]-isoGlu-RD()GTATK()ATERLA-Aad-FLQRTTF-Gly(Me)-A-Ile(Me)-LSSTEVGSNT-Hyp-NH2] ({C20 diacid-γGlu}-RDGTATKATERLA[Aad]FLQRTTF[Sar]A[NMeI]LSSTEVGSNT[Hyp]-NH2; lactam 2-7) the “Body weight reduction in % at 48 h” value [1] was 8.2%, the “Food intake reduction in % at 48 h” value [1] was 43% and the half-life [2] was 31.8 h. The pEC50 [3] was 10.22, the pEC50 [4] was 9.94 and the “% degradation after 72 h at 40° C. pH4 acetate” value ([5]; acetate buffer pH 4, 72 h) was under 1%. The “% degradation after 72 h at 40° C. pH6 phosphate” value ([5]; phosphate buffer pH 6, 72 h) was under 1%, the “% degradation after 72 h at 40° C. pH7 phosphate” value ([5]; phosphate buffer pH 7, 72 h) was under 1% and the “% degradation after 14 days at 40° C. pH7 phosphate” value ([5]; phosphate buffer pH 7, 14 days) was under 1%. For the same compound, the “Fibrillation (in buffer) pH4 acetate” value ([6]; 50 mM acetate buffer pH 4.0, 96 hours at 40° C.) was “FD”, the “Fibrillation (in buffer) pH7 histidine” value ([6]; 50 mM histidine buffer pH 7.0, 96 hours at 40° C.) was “FND” and the “Fibrillation (in buffer) pH7 phosphate” value ([6]; 50 mM phosphate buffer pH 7.0, 96 hours at 40° C.) was “FND”.
For CC[C@H](C)[C@H](NC(=O)[C@@H]1CCCN1C(=O)CNC(=O)[C@H](Cc1ccccc1)NC(=O)[C@H](CC(N)=O)NC(=O)[C@H](CC(N)=O)NC(=O)[C@H](CO)NC(=O)[C@H](CO)NC(=O)[C@H](Cc1c[nH]cn1)NC(=O)[C@@H](NC(=O)[C@H](CC(C)C)NC(=O)[C@H](Cc1ccccc1)NC(=O)[C@H](CC(N)=O)NC(=O)[C@H](C)NC(=O)[C@H](CC(C)C)NC(=O)[C@H](CCCNC(=N)N)NC(=O)[C@H](CCC(N)=O)NC(=O)[C@@H](NC(=O)[C@H](C)NC(=O)[C@@H]1CSSC[C@H](NC(=O)[C@@H](N)CCCCN)C(=O)N[C@@H](CC(N)=O)C(=O)N[C@@H]([C@@H](C)O)C(=O)N[C@@H](C)C(=O)N[C@@H]([C@@H](C)O)C(=O)N1)[C@@H](C)O)C(C)C)C(=O)N[C@@H](CC(C)C)C(=O)N1CCC[C@H]1C(=O)N1CCC[C@H]1C(=O)N[C@H](C(=O)N[C@@H](CC(N)=O)C(=O)N[C@H](C(=O)NCC(=O)N[C@@H](CO)C(=O)N[C@@H](CC(N)=O)C(=O)N[C@H](C(=O)N[C@@H](Cc1ccc(O)cc1)C(N)=O)[C@@H](C)O)C(C)C)[C@@H](C)O [pramlintide], the “effect on body weight in human trials” value [7] is listed as “reduce body weight or reduce weight gain”.
In the case of ^2,7cyclo-[2Asp,7Lys]-h-amylin, the “potency compared with other amylin analogues and human amylin” value [8] is listed as “considerably lower potency”.
